Patent publication US9409905B2, “Antibacterial compounds and methods for use” (PTC THERAPEUTICS, INC., priority 2011, dated 2016)
Converted amounts (≈) assume the structure as drawn.

Assays:
E. coli 25922 = experiment: Antibacterial activity, microbroth dilution MIC (Table 1); assay type: cell-based, Escherichia coli; details: Escherichia coli; microbroth dilution; control Gram-negative E. coli 25922 strain; read-out: MIC, 25922
Method in brief: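 Microbroth dilution was used. MIC, in μg/mL, is the lowest drug concentration preventing macroscopically visible growth under the test conditions.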

[1] = tested on: Pseudomonas aeruginosa (P. aeruginosa) 27853; experiment: Antibacterial activity, MIC (Table 5); assay type: cell-based; details: P. aeruginosa 27853, read-out: MIC, 27853
Source text: (§1) The antibacterial activity from a microbroth dilution method may be presented as the minimum inhibitory concentration (MIC in μg/mL). The MIC value is the lowest concentration of drug which prevents macroscopically visible growth under test conditions.
Antibacterial activity of test compounds against the Gram-negative bacterium Pseudomonas aeruginosa (P. aeruginosa) 27853 is shown in Table 5.

E. coli LZ3111 = experiment: Antibacterial activity, MIC, quinolone resistant strain (Table 2); assay type: cell-based; details: Escherichia coli, LZ3111, read-out: MIC LZ3111
Method in brief: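 Broth microdilution. Read-out: MIC in μg/mL, taken as lowest concentration with no macroscopically visible growth.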

K. pneumoniae MXX1232 = experiment: Antibacterial activity, MIC, resistant strain (Table 4); assay type: cell-based; details: Klebsiella pneumoniae, MXX1232; resistant K. pneumoniae MMX1232, multi-drug resistant clinical isolate; read-out: MIC, MMX1232
Source text: as §1
(§2) Antibacterial activity of test compounds against the Gram-negative Acinetobacter baumannii (A. baumannii) BAA747 and Klebsiella pneumoniae (K. pneumoniae) 35657 bacterium and the resistant A. baumannii MXX2240 and K. pneumoniae MXX1232 strains are shown in Table 4. The MMX strains are multi-drug resistant clinical isolates.

A. baumannii MXX2240 = experiment: as above; assay type: cell-based; details: Acinetobacter baumannii, MXX2240; resistant A. baumannii MMX2240, multi-drug resistant clinical isolate; read-out: MIC, MMX2240
Source text: as §1, §2

[2] = tested on: Klebsiella pneumoniae (K. pneumoniae) 35657; experiment: Antibacterial activity, MIC (Table 4); assay type: cell-based; details: K. pneumoniae 35657, read-out: MIC, 35657
Source text: as §1, §2

[3] = tested on: Acinetobacter baumannii (A. baumannii) BAA747; experiment: Antibacterial activity, MIC (Table 4); assay type: cell-based; details: A. baumannii BAA747, read-out: MIC, BAA747
Source text: as §1, §2

[4] = tested on: Staphylococcus aureus (S. aureus) 29213; experiment: Antibacterial activity, microbroth dilution MIC (Table 1); assay type: cell-based; details: microbroth dilution, Gram-positive S. aureus 29213, read-out: MIC, 29213
Method in brief: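 Each strain is exposed to test compound in a microbroth dilution series; visible growth is scored macroscopically, and the lowest growth-free concentration is recorded as MIC in μg/mL.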

[5] = tested on: Escherichia coli (E. coli) BAS849; experiment: as above; assay type: cell-based; details: microbroth dilution, super sensitive Gram-negative E. coli BAS849, read-out: MIC, BAS849
Method in brief: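 Read-out: visual absence of growth. The lowest concentration meeting this gives the MIC, expressed in μg/mL, with microbroth dilution as the method.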

SMILES | MIC (E. coli 25922) [µg/mL] | MIC [1] [µg/mL] | MIC (E. coli LZ3111) [µg/mL] | MIC (K. pneumoniae MXX1232) [µg/mL] | MIC (A. baumannii MXX2240) [µg/mL] | MIC [2] [µg/mL] | MIC [3] [µg/mL] | MIC [4] [µg/mL] | MIC [5] [µg/mL]
CCc1cc(C(=O)O)c(=O)[nH]c1-c1ccc2c(c1)cc(CN(C)Cc1ccccc1)n2C [Cpd 121, 6-(2-((benzyl(methyl)amino)methyl)-1-methyl-1H-indol-5-yl)-5-ethyl-2-oxo-1,2-dihydropyridine-3-carboxylic acid] | 1 to 3.5 (≈ 2.33 to 8.15 µM) | 12.5 to 150 (≈ 29.1 to 349 µM) | 12.5 to 150 (≈ 29.1 to 349 µM) | 12.5 to 150 (≈ 29.1 to 349 µM) | 12.5 to 150 (≈ 29.1 to 349 µM) | 3.5 to 12.5 (≈ 8.15 to 29.1 µM) | 1 to 3.5 (≈ 2.33 to 8.15 µM) | 3.5 to 12.5 (≈ 8.15 to 29.1 µM) | < 1
CCc1cc(C(=O)O)c(=O)[nH]c1-c1ccc2c(c1)cc(CN(CC)CC)n2C [Cpd 123, 6-(2-((diethylamino)methyl)-1-methyl-1H-indol-5-yl)-5-ethyl-2-oxo-1,2-dihydropyridine-3-carboxylic acid] | < 1 | 12.5 to 150 (≈ 32.8 to 393 µM) | 12.5 to 150 (≈ 32.8 to 393 µM) | 12.5 to 150 (≈ 32.8 to 393 µM) | 12.5 to 150 (≈ 32.8 to 393 µM) | < 1 | 1 to 3.5 (≈ 2.62 to 9.17 µM) | 12.5 to 150 (≈ 32.8 to 393 µM) | < 1
CCc1cc(C(=O)O)c(=O)[nH]c1-c1ccc2c(c1)cc(CN1CCOCC1)n2C [Cpd 137, 5-ethyl-6-(1-methyl-2-(morpholinomethyl)-1H-indol-5-yl)-2-oxo-1,2-dihydropyridine-3-carboxylic acid] | 1 to 3.5 (≈ 2.53 to 8.85 µM) | 12.5 to 150 (≈ 31.6 to 379 µM) | 12.5 to 150 (≈ 31.6 to 379 µM) | 12.5 to 150 (≈ 31.6 to 379 µM) | 12.5 to 150 (≈ 31.6 to 379 µM) | 1 to 3.5 (≈ 2.53 to 8.85 µM) | 3.5 to 12.5 (≈ 8.85 to 31.6 µM) | 12.5 to 150 (≈ 31.6 to 379 µM) | < 1
CCc1cc(C(=O)O)c(=O)[nH]c1-c1ccc2c(c1)cc(CN1CCN(C)CC1)n2C [Cpd 140, 5-ethyl-6-(1-methyl-2-((4-methylpiperazin-1-yl)methyl)-1H-indol-5-yl)-2-oxo-1,2-dihydropyridine-3-carboxylic acid] | 1 to 3.5 (≈ 2.45 to 8.57 µM) | 12.5 to 150 (≈ 30.6 to 367 µM) | 12.5 to 150 (≈ 30.6 to 367 µM) | 12.5 to 150 (≈ 30.6 to 367 µM) | 12.5 to 150 (≈ 30.6 to 367 µM) | 1 to 3.5 (≈ 2.45 to 8.57 µM) | 3.5 to 12.5 (≈ 8.57 to 30.6 µM) | 12.5 to 150 (≈ 30.6 to 367 µM) | < 1
CCc1cc(C(=O)O)c(=O)[nH]c1-c1ccc2c(c1)cc1n2CCC1N1CCCCC1 (stereo not drawn) [Cpd 154, 5-ethyl-2-oxo-6-(1-(piperidin-1-yl)-2,3-dihydro-1H-pyrrolo[1,2-a]indol-7-yl)-1,2-dihydropyridine-3-carboxylic acid] | 1 to 3.5 (≈ 2.47 to 8.63 µM) | 12.5 to 150 (≈ 30.8 to 370 µM) | 12.5 to 150 (≈ 30.8 to 370 µM) | 12.5 to 150 (≈ 30.8 to 370 µM) | 12.5 to 150 (≈ 30.8 to 370 µM) | 1 to 3.5 (≈ 2.47 to 8.63 µM) | 3.5 to 12.5 (≈ 8.63 to 30.8 µM) | 12.5 to 150 (≈ 30.8 to 370 µM) | < 1
CC(C)c1c(-c2ccc3c(c2)cc(CN(C)C)n3C)[nH]c(=O)c(C(=O)O)c1O [Cpd 318, 6-(2-((dimethylamino)methyl)-1-methyl-1H-indol-5-yl)-4-hydroxy-5-isopropyl-2-oxo-1,2-dihydropyridine-3-carboxylic acid] | 1 to 3.5 (≈ 2.61 to 9.13 µM) | 12.5 to 150 (≈ 32.6 to 391 µM) | 12.5 to 150 (≈ 32.6 to 391 µM) | 12.5 to 150 (≈ 32.6 to 391 µM) | 12.5 to 150 (≈ 32.6 to 391 µM) | 3.5 to 12.5 (≈ 9.13 to 32.6 µM) | 12.5 to 150 (≈ 32.6 to 391 µM) | 12.5 to 150 (≈ 32.6 to 391 µM) | < 1
CN(C)Cc1cc2cc(-c3[nH]c(=O)c(C(=O)O)c(O)c3C3CC3)ccc2n1C [Cpd 322, 5-cyclopropyl-6-(2-((dimethylamino)methyl)-1-methyl-1H-indol-5-yl)-4-hydroxy-2-oxo-1,2-dihydropyridine-3-carboxylic acid] | 12.5 to 150 (≈ 32.8 to 393 µM) | 12.5 to 150 (≈ 32.8 to 393 µM) | 12.5 to 150 (≈ 32.8 to 393 µM) | 12.5 to 150 (≈ 32.8 to 393 µM) | 12.5 to 150 (≈ 32.8 to 393 µM) | 12.5 to 150 (≈ 32.8 to 393 µM) | 12.5 to 150 (≈ 32.8 to 393 µM) | 12.5 to 150 (≈ 32.8 to 393 µM) | 1 to 3.5 (≈ 2.62 to 9.18 µM)
C=CCc1c(-c2ccc3c(c2)cc(CN(C)C)n3C)[nH]c(=O)c(C(=O)O)c1O [Cpd 339, 5-allyl-6-(2-((dimethylamino)methyl)-1-methyl-1H-indol-5-yl)-4-hydroxy-2-oxo-1,2-dihydropyridine-3-carboxylic acid] | < 1 | 12.5 to 150 (≈ 32.8 to 393 µM) | 3.5 to 12.5 (≈ 9.18 to 32.8 µM) | 12.5 to 150 (≈ 32.8 to 393 µM) | 3.5 to 12.5 (≈ 9.18 to 32.8 µM) | 1 to 3.5 (≈ 2.62 to 9.18 µM) | 3.5 to 12.5 (≈ 9.18 to 32.8 µM) | 3.5 to 12.5 (≈ 9.18 to 32.8 µM) | < 1
CCCc1c(-c2ccc3c(c2)cc(CN(C)C)n3C)[nH]c(=O)c(C(=O)O)c1O [Cpd 340, 6-(2-((dimethylamino)methyl)-1-methyl-1H-indol-5-yl)-4-hydroxy-2-oxo-5-propyl-1,2-dihydropyridine-3-carboxylic acid] | 3.5 to 12.5 (≈ 9.13 to 32.6 µM) | 12.5 to 150 (≈ 32.6 to 391 µM) | 3.5 to 12.5 (≈ 9.13 to 32.6 µM) | 12.5 to 150 (≈ 32.6 to 391 µM) | 3.5 to 12.5 (≈ 9.13 to 32.6 µM) | 3.5 to 12.5 (≈ 9.13 to 32.6 µM) | 12.5 to 150 (≈ 32.6 to 391 µM) | 12.5 to 150 (≈ 32.6 to 391 µM) | < 1
COCCNCc1cc2cc(-c3[nH]c(=O)c(C(=O)O)c(O)c3C)ccc2n1C [Cpd 341, 4-hydroxy-6-(2-((2-methoxyethylamino)methyl)-1-methyl-1H-indol-5-yl)-5-methyl-2-oxo-1,2-dihydropyridine-3-carboxylic acid] | 3.5 to 12.5 (≈ 9.08 to 32.4 µM) | 12.5 to 150 (≈ 32.4 to 389 µM) | < 1 | 12.5 to 150 (≈ 32.4 to 389 µM) | 1 to 3.5 (≈ 2.59 to 9.08 µM) | 3.5 to 12.5 (≈ 9.08 to 32.4 µM) | 3.5 to 12.5 (≈ 9.08 to 32.4 µM) | 12.5 to 150 (≈ 32.4 to 389 µM) | < 1
CCNCc1cc2cc(-c3[nH]c(=O)c(C(=O)O)c(O)c3C)ccc2n1C [Cpd 342, 6-(2-((ethylamino)methyl)-1-methyl-1H-indol-5-yl)-4-hydroxy-5-methyl-2-oxo-1,2-dihydropyridine-3-carboxylic acid] | 1 to 3.5 (≈ 2.81 to 9.85 µM) | 12.5 to 150 (≈ 35.2 to 422 µM) | < 1 | 12.5 to 150 (≈ 35.2 to 422 µM) | 1 to 3.5 (≈ 2.81 to 9.85 µM) | < 1 | 3.5 to 12.5 (≈ 9.85 to 35.2 µM) | 12.5 to 150 (≈ 35.2 to 422 µM) | < 1
Cc1c(-c2ccc3c(c2)cc(CNCCN)n3C)[nH]c(=O)c(C(=O)O)c1O [Cpd 343, 6-(2-((2-aminoethylamino)methyl)-1-methyl-1H-indol-5-yl)-4-hydroxy-5-methyl-2-oxo-1,2-dihydropyridine-3-carboxylic acid] | 12.5 to 150 (≈ 33.7 to 405 µM) | 12.5 to 150 (≈ 33.7 to 405 µM) | 12.5 to 150 (≈ 33.7 to 405 µM) | 12.5 to 150 (≈ 33.7 to 405 µM) | 12.5 to 150 (≈ 33.7 to 405 µM) | 12.5 to 150 (≈ 33.7 to 405 µM) | 12.5 to 150 (≈ 33.7 to 405 µM) | 12.5 to 150 (≈ 33.7 to 405 µM) | 12.5 to 150 (≈ 33.7 to 405 µM)
CNCCNCc1cc2cc(-c3[nH]c(=O)c(C(=O)O)c(O)c3C)ccc2n1C [Cpd 344, 4-hydroxy-5-methyl-6-(1-methyl-2-((2-(methylamino)ethylamino)methyl)-1H-indol-5-yl)-2-oxo-1,2-dihydropyridine-3-carboxylic acid] | 12.5 to 150 (≈ 32.5 to 390 µM) | 12.5 to 150 (≈ 32.5 to 390 µM) | 12.5 to 150 (≈ 32.5 to 390 µM) | 12.5 to 150 (≈ 32.5 to 390 µM) | 12.5 to 150 (≈ 32.5 to 390 µM) | 12.5 to 150 (≈ 32.5 to 390 µM) | 12.5 to 150 (≈ 32.5 to 390 µM) | 12.5 to 150 (≈ 32.5 to 390 µM) | 12.5 to 150 (≈ 32.5 to 390 µM)
Cc1c(-c2ccc3c(c2)cc(CNCCN(C)C)n3C)[nH]c(=O)c(C(=O)O)c1O [Cpd 345, 6-(2-((2-(dimethylamino)ethylamino)methyl)-1-methyl-1H-indol-5-yl)-4-hydroxy-5-methyl-2-oxo-1,2-dihydropyridine-3-carboxylic acid] | 12.5 to 150 (≈ 31.4 to 376 µM) | 12.5 to 150 (≈ 31.4 to 376 µM) | 1 to 3.5 (≈ 2.51 to 8.78 µM) | 12.5 to 150 (≈ 31.4 to 376 µM) | 12.5 to 150 (≈ 31.4 to 376 µM) | 12.5 to 150 (≈ 31.4 to 376 µM) | 12.5 to 150 (≈ 31.4 to 376 µM) | 12.5 to 150 (≈ 31.4 to 376 µM) | 3.5 to 12.5 (≈ 8.78 to 31.4 µM)
